Test results reported in article PMC10720383, “Acetylcholinesterase Inhibition in Rats and Humans Following Acute Fenitrothion Exposure Predicted by Physiologically Based Kinetic Modeling-Facilitated Quantitative In Vitro to In Vivo Extrapolation” (Environmental Science & Technology, 2023).
Where “and” joins values, the source holds several entries; their conditions need not be identical. Identical values can stand only once. Like-named read-outs stand apart in the source and are kept apart here.

What was measured:
[1] = system: erythrocyte AChE; conditions: rat, cited from earlier work
[2] = target: T1, PON1 (Rattus norvegicus, UniProt P55159); assay: in vitro; type: in vitro ADME; conditions: both sexes, Sprague-Dawley, pH 7.4, gender-mixed
T1 construct: gender-mixed liver microsomes or plasma from rats and humans; tissue Corning (male) and Sigma-Aldrich (female), pooled; host or cells: Sprague-Dawley rat liver microsomes, gender-mixed
T1 sequence (P55159 whole entry): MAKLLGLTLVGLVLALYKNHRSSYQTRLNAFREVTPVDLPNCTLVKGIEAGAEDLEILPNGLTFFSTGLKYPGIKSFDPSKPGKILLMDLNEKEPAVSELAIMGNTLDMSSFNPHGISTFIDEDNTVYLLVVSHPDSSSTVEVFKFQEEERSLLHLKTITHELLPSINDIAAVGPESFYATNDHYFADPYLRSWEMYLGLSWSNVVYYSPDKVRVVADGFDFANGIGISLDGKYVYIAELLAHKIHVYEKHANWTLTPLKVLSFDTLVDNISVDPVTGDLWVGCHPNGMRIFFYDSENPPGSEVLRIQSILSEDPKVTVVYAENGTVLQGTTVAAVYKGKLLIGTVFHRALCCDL
Experimental: (§1) In vitro incubations were performed to obtain kinetic parameters for the CYP450s-catalyzed conversion of FNT to FNO and MNP using gender-mixed rat and human liver microsomes. For the PON1-dominated detoxification of FNO to MNP, in vitro incubations were conducted with gender-mixed liver microsomes or plasma from rats and humans. Sample extraction with diisopropyl ether was performed before UPLC-PDA analysis. More details on in vitro incubations, sample extraction, UPLC-PDA analysis, and calculation of kinetic parameters are provided in the Supporting Information. […]
(§2) All incubations were performed in triplicate.
(§3) In vitro incubations for metabolic conversions of FNO
(§4) Incubations with liver microsomes and plasma were performed to obtain kinetic parameters for PON1-mediated detoxification of FNO to MNP based on a modified method (Zhao et al. 2021). Incubation conditions that were suitable for linearity with respect to time and microsomal protein or plasma protein concentration were defined (data not shown). The final incubation mixtures with a total volume of 200 µL contained 50 mM Tris-HCl (pH 7.4), 2 mM CaCl2 as PON1 activity simulator, and FNO at final concentrations ranging from 25 to 5000 µM (added from 100 times concentrated stock solutions in acetonitrile). Controls differed from test incubations by the absence of liver microsomes or plasma, which was replaced with Tris-HCl. After 1-min pre-incubation in a 37°C water bath, 2 µL rat or 10 µL human liver microsomes (final concentration 0.2 and 1 mg microsomal protein/mL for rat and human samples, respectively) was added to initiate the reaction. For the plasma incubations, 4 µL of rat plasma or 10 µL human plasma (final concentration 1.2 and 3.3 mg plasma protein/mL for rat and human samples, respectively) was used. Reactions were terminated after incubating 10 min for rat samples or 20 min for human samples by adding 20 µL ice-cold HClO4 (10%, v/v), and samples were kept on ice until further extraction. All incubations were performed in triplicate.
(§5) DIPE extraction of FNT and its metabolites (Zhao et al. 2019; Wang et al. 2022) was performed before UPLC analysis. […]
(§6) Finally, the obtained residue was redissolved in 100 μL methanol, and subsequently analyzed with […]
(§7) The quantification of FNT, FNO and MNP was conducted using a Shimadzu Nexera X2 liquid chromatography system (LC-30AD, Kyoto, Japan), connected with a photodiode array detector (SPD-M30A, Shimadzu, Kyoto, Japan). […]
(§8) temperature at 10°C during analysis. […] Quantification of FNT and FNO was performed by integrating peak areas at 269 nm and for MNP at 315 nm using calibration curves (r2 > 0.99) prepared with commercial standards. The limit of quantification was 0.1 µM for FNT, FNO and MNP when using an injection volume of 20 µL. […]

[3] = target: T2, PON1 (Homo sapiens, UniProt P27169); assay: in vitro; type: in vitro ADME; conditions: both sexes, pH 7.4, gender-mixed
T2 construct: gender-mixed liver microsomes or plasma from rats and humans; tissue BioIVT (West Sussex, UK); host or cells: human plasma pooled from 25 donors, mixed gender
T2 sequence (P27169 whole entry): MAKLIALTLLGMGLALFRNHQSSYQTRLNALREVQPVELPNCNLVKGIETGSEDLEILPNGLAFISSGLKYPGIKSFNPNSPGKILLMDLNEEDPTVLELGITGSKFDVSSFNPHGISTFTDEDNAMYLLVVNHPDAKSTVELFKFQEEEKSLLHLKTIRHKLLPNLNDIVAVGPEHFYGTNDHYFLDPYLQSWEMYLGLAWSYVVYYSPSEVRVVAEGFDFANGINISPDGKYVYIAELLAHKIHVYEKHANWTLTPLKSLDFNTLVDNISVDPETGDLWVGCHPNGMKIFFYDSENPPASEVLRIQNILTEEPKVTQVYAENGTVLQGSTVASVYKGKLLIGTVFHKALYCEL
Experimental: as §1, §2, §3, §4, §5, §6, §7, §8

| Compound | reported NOAEL ([1]; EFSA, 90 day rat study, body weight gain and erythrocyte and brain cholinesterase activity) | reported NOAEL ([1]; US EPA, erythrocyte AChE inhibition after 2 weeks of dosing in a 92 week rat study) [mg/kg BW] | Km ([2]; rat liver microsomes, read-out: Km, FNO to MNP (PON1-catalyzed), liver) [mM] | Km ([2]; rat plasma, read-out: Km, FNO to MNP (PON1-catalyzed), plasma) [mM] | Km ([3]; human liver microsomes, read-out: Km, FNO to MNP (PON1-catalyzed), liver) [mM] | Km ([3]; human plasma, read-out: Km, FNO to MNP (PON1-catalyzed), plasma) [mM] |
| --- | --- | --- | --- | --- | --- | --- |
| COP(=S)(OC)Oc1ccc([N+](=O)[O-])c(C)c1 [FNT, O,O-dimethyl O-4-nitro-m-tolyl phosphorothioate] | 1.3 mg/kg BW and 1.30 mg/kg BW | 0.25 |  |  |  |  |
| COP(=O)(OC)Oc1ccc([N+](=O)[O-])c(C)c1 [FNO, fenitrooxon] |  |  | 4.53 | 4.08 | 12.6 | 5.49 |
